# According to PMC9820303, “^αN-Acetyl β-Endorphin Is an Endogenous Ligand of σ1Rs That Regulates Mu-Opioid Receptor Signaling by Exchanging G Proteins for σ2Rs in σ1R Oligomers” (International Journal of Molecular Sciences, 2022):
# How the values were obtained:
# [1] = target: T1, σ1R oligomers-G proteins (Gi2, Go, Gq-11, Gz) (Mus musculus, UniProt O55242); assay: Ex vivo fishing assay: G proteins of mouse solubilized brain membranes (SBM) bound to agarose-σ1R oligomers; format: biochemical; settings: for effect on G protein binding to agarose-σ1R oligomers: 2 h, increasing concentrations, n = 3
# T1 construct: The coding region of the full-length murine σ1R (AF004927); GST (N); made in house; host or cells: E. coli BL21 (KRX) for σ1R; the G proteins come from solubilised mouse cerebral cortex synaptosomal membranes
# Protocol: (A) The effect of σ1R deletion on opioid- and cannabinoid-induced analgesia. Analgesic compounds were icv-injected into wild-type and σ1R^−/− mice, and analgesia was evaluated 30 min after morphine (3 nmol) and β-End 1–31 (0.5 nmol), 15 min after DAMGO (0.1 nmol) and DPDPE (10 nmol) and 10 min after WIN55,212-2 (15 nmol). The bars are the mean ± SD of eight mice per strain and treatment. * Significant difference with respect to the effect of the analgesic substance in the wild-type group. ANOVA followed by the Holm–Sidak multiple comparisons test, p < 0.05, 1-β > 0.80. (B) Coprecipitation of G proteins with MORs. Solubilized mouse brain cortical membranes enriched in synaptosomes (SBM) from CD1 wild-type (WT) and σ1R^−/− mice were solubilized with sonication in the presence of 1% NP-40. Non-soluble debris was eliminated, and the samples were then incubated overnight at 4 °C with affinity-purified biotinylated IgGs that were raised against extracellular regions of the MOR. Protein complexes that were immunoprecipitated with streptavidin agarose were extensively washed and then resolved by SDS-PAGE. The target G proteins, alpha and beta subunits, were visualized by Western blotting (for further details, see Section 4). IP: immunoprecipitated protein, WB: Western blot. Detection of MORs: these proteins were detected with an anti-MOR antibody directed to the C-terminal sequence, a different amino acid sequence than that used for immunoprecipitation (second extracellular loop-2EL). In parallel blots, an antibody directed to the light IgG chain of the anti-MOR antibodies used for immunoprecipitation of MORs provided a loading control for the samples in the gels. […] The immunosignals of Gα subunits coprecipitated with MORs were referred to those of the MORs. Data are the mean ± SD of three determinations. ANOVA followed by the Holm–Sidak multiple comparisons test, p < 0.05, 1-β > 0.80. (C) Pull-down assays using mouse SBM. Cerebral cortex fractions enriched in synaptosomes from CD1 WT mice were solubilized with RIPA buffer and incubated for 2 h with recombinant σ1Rs covalently attached to agarose-NHS (Θ-σ1R). Agarose pellets containing the bound proteins were resolved by SDS-PAGE, and the G protein α subunits were probed in Western blots. The capture of σ1Rs and σ2Rs by Θ-σ1R was also determined in SBM from WT, σ1R^−/− and σ2R^−/− mice. […] Representative blots are shown. (D) Effect of ligands on the association of endogenous G proteins present in mouse SBM with Θ-σ1R oligomers produced in vitro (see Section 4). The Θ-σ1Rs were incubated with the SBM in the absence and presence of increasing concentrations of σ1R ligands. The G proteins that remained bound to Θ-σ1R oligomers were determined as in (C). […] For each compound and concentration studied data are the mean ± SD, n = 3. Data were analyzed by pairwise Holm–Sidak multiple comparison tests following ANOVA: p < 0.05, 1-β > 0.80.
# For fishing studies, solubilization of neural synaptosomes from cerebral cortices or PAG was carried out at 4 °C in RIPA buffer. The membranes were incubated at 4 °C for 16 h with agitation, and then centrifuged at 10,000× g for 5 min. The supernatant was cleared with 20 μL of Sepharose 4B (#17-0120-01, GE Healthcare) pre-equilibrated for 1 h at 4 °C, followed by centrifugation at 4300× g for 5 min. The σ1R was immobilized through covalent attachment to N-Hydroxysuccinimide (NHS)-activated Sepharose 4 fast flow (4FF, #17-0906-01; GE) according to the manufacturer’s instructions.
# [2] = system: MOR; assay: Coprecipitation of G proteins, σ2Rs and NMDAR NR1 C1 with PAG MORs after icv injection; format: in vivo, mouse; settings: 60 min post-treatment; for effect on association of PAG MOR with G proteins, σ2Rs and NR1 C1: icv: β-End 1–31 5 pmol, ^αN-acetyl β-End 1–31 5 pmol, S1RA 3 nmol, n = 3
# Source text: The data from σ2R^−/− solubilized cortical tissue were referred to the wild-type control (arbitrary value of 1). […] For each Gα subunit and the σ1R, the immunosignals in the absence of the acetylated peptide were the controls (C, value of 1). […] (D) Coprecipitation of G proteins with MORs in CD1 wild-type and σ2R^−/− mice. MORs were immunoprecipitated (IP) from mouse SBM. Coprecipitated proteins were detached from MORs and analyzed by Western blotting with antibodies directed to Gαi2, Gαo, Gαz and MOR proteins. (E) Effect of in vivo icv injection of β-End 1–31, ^αN-acetyl β-End 1–31 and S1RA on the association of PAG MORs with G proteins, σ2Rs and NMDAR NR1 C1 subunits. β-End 1–31 (5 pmol), ^αN-acetyl β-End 1–31 (5 pmol) and S1RA (3 nmol and 10 nmol) were icv-injected, and the mice were sacrificed 60 min post-treatment to obtain the PAG synaptosomal fraction. The MORs were immunoprecipitated from the solubilized membrane preparations, and the coprecipitated target proteins were analyzed by Western blotting. […] Representative blots are shown. The immunosignal provided by the light chain of the affinity-purified anti MOR IgGs was used as SDS-PAGE loading control. […] Data were analyzed by pairwise Holm–Sidak multiple comparison tests following ANOVA: p < 0.05, 1-β > 0.80.
# In immunoprecipitation studies, the cerebral cortices or periaqueductal grey matter (PAG) from 4–6 mice are typically pooled, as described previously [89]. […] The software automatically calculates the optimal exposure time for each of the areas specified to provide the strongest possible signal for accurate quantification of the sample. Protein immunosignals were measured using the area of the strongest signal for each group of samples studied (average optical density of the pixels within the object area/mm^2; AlphaEase FC software); the grey values of the means were then normalized within the 8 bit/256 grey levels [(256 − computed value)/computed value].
# [3] = target: σ1R-σ2R (Mus musculus, UniProt O55242); assay: σ1R/σ2R coprecipitation from CHO cells cotransfected with cMyc-σ1R and HA-σ2R; format: cell-based, Chinese hamster ovary (CHO) cells; design: Full-length sigma receptors were subcloned in frame; expressed in transfected cells; host or cells: CHO cells; settings: peptides 1 nM, PRE084, S1RA and BD1047 100 nM; 30 min in serum-free medium
# Protocol: Effect of β-End 1–31 and ^αN-acetyl derivative. (A) Single-wavelength and merged images of CHO cells cotransfected with cMyc-σ1R and HA-σ2R. The cells were fixed 48 h after transfection and analyzed by confocal laser scanning microscopy. Transient expression of proteins within the transfected cells was detected with anti-cMyc (green) and anti-HA (red) antibodies (original magnification 10×). […] Scale bar: 30 µm. (B) Nuclei stained with DAPI (blue). (C–F) Single-wavelength and merged images are enlargements of individual cells. Scale bar: 5 µm. Lower panels: (G) Immunoprecipitation (IP) of tagged sigma receptor types from cotransfected CHO cells. […] Representative blots are shown.
# CHO cells were cultured in modified Eagle’s medium/nutrient mixture F-12 (DMEM/F12) supplemented with GlutaMax (#31331028, ThermoFisher, Spain), 10% foetal bovine serum (#10500064, ThermoFisher), 100 IU/mL penicillin and 100 μg/mL streptomycin (#15140148, ThermoFisher) at 37 °C in a humidified 5% CO2 incubator as described previously. Full-length sigma receptors were subcloned in frame into the pSF-CMV-Puro-NH2-CMyc N-terminal tag (σ1R, #OGS3214, Merck-Sigma) and pSF-CMV-Puro-NH2-HA N-terminal tag (σ2R, #OGS1500, Merck-Sigma) mammalian plasmids using standard cloning strategies. CHO cells were seeded on 12-well plates at a concentration of 0.35 × 10^6 cells per well, grown in Opti-MEM™ I Reduced Serum Medium (#31985070, ThermoFisher) to 70–80% confluence, transfected using Lipofectamine 2000 (#11668030, Invitrogen) and incubated for 24 h prior to testing for transgene expression. For all experiments, the culture medium was replaced with serum-free medium before the addition of sigma ligands and incubated for 30 min. Cells were then harvested and cellular extracts were prepared for immunoprecipitation analysis. Receptors were detected by Western blot analysis using an antibody that recognizes either tag: Myc-tag (#MA1 21316 BTIN, Invitrogen), HA-tag (#26183-BTIN, Invitrogen).
# T1 sequence (O55242 whole entry): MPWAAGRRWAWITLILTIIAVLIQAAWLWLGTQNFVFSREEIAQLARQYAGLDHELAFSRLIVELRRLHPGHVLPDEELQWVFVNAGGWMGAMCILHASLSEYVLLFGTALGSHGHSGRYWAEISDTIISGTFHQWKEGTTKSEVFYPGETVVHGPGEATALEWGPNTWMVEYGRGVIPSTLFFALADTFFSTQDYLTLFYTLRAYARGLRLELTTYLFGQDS
# σ1R-σ2R, sequence (O55242 whole entry): as above
# MOR, sequence (P42866 whole entry): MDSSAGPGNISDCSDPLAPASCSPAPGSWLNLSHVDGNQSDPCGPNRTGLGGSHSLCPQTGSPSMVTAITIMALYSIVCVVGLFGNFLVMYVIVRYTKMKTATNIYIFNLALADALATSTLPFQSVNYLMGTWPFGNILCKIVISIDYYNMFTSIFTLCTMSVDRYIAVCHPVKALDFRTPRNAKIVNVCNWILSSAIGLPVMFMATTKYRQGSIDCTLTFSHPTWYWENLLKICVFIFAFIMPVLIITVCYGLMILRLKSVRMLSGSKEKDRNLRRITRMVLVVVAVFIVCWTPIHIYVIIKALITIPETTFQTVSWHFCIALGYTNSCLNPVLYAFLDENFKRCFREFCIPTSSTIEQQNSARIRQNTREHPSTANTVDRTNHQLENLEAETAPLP
compound,measurement,setting,value
"KKGE [β-End 28–31, C-terminal tetrapeptide of β-End 1–31]",effect on G protein binding to agarose-σ1R oligomers,[1]; wild-type SBM,showed G-protein-releasing effects
"^αN-acetyl β-End 1–31: β-End 1–31 acetylated at N terminal Y1, α position",release of G proteins from σ1R oligomers in the absence of σ2Rs,[1]; SBM from σ2R−/− mice,failed to release G proteins from σ1R oligomers
same,concentrations needed for Gz to be freed from σ1R oligomers,[1]; wild-type SBM,pM concentrations
same,"concentrations releasing Go, Gq-11 and Gi2 proteins from σ1R oligomers",[1]; wild-type SBM,fM concentrations
same,effect on G protein binding to agarose-σ1R oligomers,[1]; wild-type SBM,efficiently released G proteins from agarose-σ1Rs
same,"effect on association of PAG MOR with G proteins, σ2Rs and NR1 C1",[2],slightly reproduced
same,effect on σ1R-σ2R association in CHO cells,[3],preserved these protein complexes
"β-End 1–27: β-End 1–31 derivative without 4 C-terminal residues (YGGFMTSEKSQTPLVTLFKNAIIKNAY; Beta-endorphin; UniProt P01189 237-263, looked up, fragment)",effect on G protein binding to agarose-σ1R oligomers,[1]; wild-type SBM,showed G-protein-releasing effects
"Br.Br.CN(C)CCN(C)CCc1ccc(Cl)c(Cl)c1 [BD1047, N′-[2-(3,4-dichlorophenyl)ethyl]-N,N,N′-trimethylethane-1,2-diamine;dihydrobromide, reference compound]",effect on σ1R-σ2R association in CHO cells,[3],preserved these protein complexes
"Cl.O=C(OCCN1CCOCC1)C1(c2ccccc2)CCCCC1 [PRE084, 2-(4-morpholinethyl)-1-phenylcyclohexanecarboxylate hydrochloride, reference compound]",effect on G protein binding to agarose-σ1R oligomers,[1]; wild-type SBM,did not disrupt G protein binding to σ1R oligomers but increased the binding to Gz proteins
same,effect on σ1R-σ2R association in CHO cells,[3],strongly decreased the σ1R-σ2R association
"β-End 1–26: β-End 1–31 derivative without 5 C-terminal residues (YGGFMTSEKSQTPLVTLFKNAIIKNA; Beta-endorphin; UniProt P01189 237-262, looked up, fragment)",effect on G protein binding to agarose-σ1R oligomers,[1]; wild-type SBM,showed G-protein-releasing effects
Cc1cc(OCCN2CCOCC2)nn1-c1ccc2ccccc2c1 [S1RA],effect on G protein binding to agarose-σ1R oligomers,[1]; wild-type SBM,exhibited G-protein-releasing effects
same,"effect on association of PAG MOR with G proteins and σ2Rs, 10 nmol",[2]; 10 nmol icv,increased MOR association with Gi2/o and σ2Rs
same,"effect on association of PAG MOR with G proteins, σ2Rs and NR1 C1",[2],slightly reproduced
same,effect on σ1R-σ2R association in CHO cells,[3],preserved these protein complexes
